Laboratory results from US11970462B1, “Ethyl 3-[4,4-bis(4-chlorophenyl)-2,5-dioxoimidazolidin-1-yl]propanoate as an antimicrobial compound” (KING FAISAL UNIVERSITY, priority 2024, dated 2024).

Columns and labels:
Format in all cases: cell-based
Settings in all cases: after 10, 20, 40 and 60 minutes at all dilutions 1:100, 1:200, 1:400, 1:800
[1] = system: Staphylococcus aereus; experiment: Antimicrobial testing by agar dilution, St. Aereus
Experimental: (§1) The antimicrobial properties of the ethyl 3-[4,4-bis(4-chlorophenyl)-2,5-dioxoimidazolidin-1-yl]propanoate were studied by the method of agar dilution. Test solutions of each compound was prepared in concentration of 1% using dimethylformamide as a solvent then they are diluted in physiological solution to obtain the final experimental dilutions 1:100, 1:200, 1:400, 1:800. The effect of these substances are compared with furacillin in a controlable study. The testing microbes used were gram positive bacteria Staphylococcus aereus, gram negative bacteria Escherichia Coli, Pseudomonas aeruginosa and Candida albicans fungi were taken. The experiments used for this survey were meat-pentonlu agar (EPA) for cultivation of bacteria and Saburo environment for fungi. Each experiment used 1 ml of test solution on each plate 500 min. Add 2 drops of emulsified with microbes feel. All experimental samples were taken from the agar after 10, 20, 40, 60 minutes in the environment on the basis of Patrk planted. Bacteria were cultivated at a temperature of 37° C. for 1 day and the mushroom was kept in a thermostat for 2 hours at a temperature of 28° C. in the. Then results were checked.

[2] = system: Escherichia Coli; experiment: Antimicrobial testing by agar dilution, E. Coli
Experimental: as §1

[3] = system: Pseudomonas aeruginosa; experiment: Antimicrobial testing by agar dilution, Ps. aeruginosa
Experimental: as §1

[4] = system: Candida albicans; experiment: Antimicrobial testing by agar dilution, Candida albicans
Experimental: as §1

CCOC(=O)CCN1C(=O)NC(c2ccc(Cl)cc2)(c2ccc(Cl)cc2)C1=O [ethyl 3-[4,4-bis(4-chlorophenyl)-2,5-dioxoimidazolidin-1-yl]propanoate]
higher inhibition activity: inhibition activity (in words), Staphylococcus aereus [1] | inhibition activity (in words), Escherichia Coli [2] | inhibition activity (in words), Pseudomonas aeruginosa [3] | inhibition activity (in words), Candida albicans [4]
